The values below are quoted from earlier work in publication PMC9103764, “Pilot Study on Acute Effects of Pharmacological Intraperitoneal L-Homoarginine on Homeostasis of Lysine and Other Amino Acids in a Rat Model of Isoprenaline-Induced Takotsubo Cardiomyopathy” (International Journal of Molecular Sciences, 2022).

Details of series [1]: method as in PMID 9127274. The following applies: rat; cited from earlier work.
The subject of another series is serotonin receptor 4. The following applies: cited from earlier work.

Structures are written as SMILES.

In the case of `CC(C)NCC(O)c1ccc(O)c(O)c1` (centres unmarked) [isoprenaline], the elimination half-life in series [1] is 10 min.
`NCCCC[C@H](N)C(=O)O` [Lys, L-lysine]: the “action at serotonin receptor 4” value in the series on serotonin receptor 4 is given as “partial serotonin receptor 4 antagonist”.
